Results reported in patent US12668589B2, “N-formamidopyrazoline derivative as P2X3 receptor antagonist and use thereof” (HANGZHOU WESTAN PHARMACEUTICAL TECHNOLOGY CO., LTD, priority 2020, dated 2026).
pIC50: −log10 of the molar value.

Key:
rP2X3 = target: T1, rP2X3 (Rattus norvegicus, UniProt P49654); assay: Inhibitory activity against P2X3 in rats (electrophysiological method); assay type: cell-based
T1 construct: expressed in transfected cells; host or cells: HEK293
T1 sequence (P49654 1-397): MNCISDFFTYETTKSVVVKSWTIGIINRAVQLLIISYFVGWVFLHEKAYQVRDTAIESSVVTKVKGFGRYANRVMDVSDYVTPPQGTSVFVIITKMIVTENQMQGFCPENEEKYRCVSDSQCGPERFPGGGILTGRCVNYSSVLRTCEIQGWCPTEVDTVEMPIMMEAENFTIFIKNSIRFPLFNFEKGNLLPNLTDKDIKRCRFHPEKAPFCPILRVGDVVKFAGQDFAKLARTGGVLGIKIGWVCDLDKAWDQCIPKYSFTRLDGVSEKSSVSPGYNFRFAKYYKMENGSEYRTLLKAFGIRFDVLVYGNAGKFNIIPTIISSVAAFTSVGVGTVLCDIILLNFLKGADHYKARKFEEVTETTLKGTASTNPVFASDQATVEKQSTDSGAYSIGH

gpP2X3 = target: T2, gpP2X3 (Cavia porcellus, UniProt H0VWY5); assay: Inhibitory activity against P2X3 in guinea pigs (electrophysiological method); assay type: cell-based; settings: guinea pig P2X3, electrophysiological method
T2 sequence (H0VWY5 1-391): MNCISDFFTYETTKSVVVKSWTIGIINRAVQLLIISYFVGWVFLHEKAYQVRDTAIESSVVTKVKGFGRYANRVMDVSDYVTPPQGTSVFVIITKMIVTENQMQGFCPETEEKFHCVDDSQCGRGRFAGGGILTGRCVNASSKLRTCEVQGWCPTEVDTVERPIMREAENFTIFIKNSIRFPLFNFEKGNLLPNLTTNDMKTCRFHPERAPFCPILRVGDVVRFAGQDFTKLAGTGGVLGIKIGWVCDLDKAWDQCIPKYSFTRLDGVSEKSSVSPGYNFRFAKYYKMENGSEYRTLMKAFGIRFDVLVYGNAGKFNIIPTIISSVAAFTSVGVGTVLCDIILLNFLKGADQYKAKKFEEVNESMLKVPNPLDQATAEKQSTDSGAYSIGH

taste of SD rats = assay: Rat taste test (quinine water / tap water drinking); assay type: in vivo; settings: 10 mg/kg intraperitoneal injection; for Water drinking amount, Tap water: free drinking 15 minutes, amounts measured to the nearest 0.1 mL; for Water drinking amount, Sum: tap plus quinine water; for Water drinking amount, Sum / Water drinking amount, Quinine: 15 minutes, measured to the nearest 0.1 mL; for Water drinking amount, Quinine: water with 0.3 mM quinine hydrochloride
Experimental: Experimental purpose: to observe an effect of title compounds on taste of SD rats.
• 1.1) Animals and grouping: 40 male SD rats, with about 300 grams per rat. […] A bottle of normal drinking water and a bottle of drinking water containing 0.3 mM quinine hydrochloride were placed in each cage at the same time, and left and right positions where the two bottles of water were placed in all animal feeding cages were the same. After the animals were allowed to freely drink water for 15 minutes, drinking amounts of the two bottles of water were measured respectively to the nearest 0.1 mL. • 1.5) Data statistics: drinking amounts of quinine bitter water and tap water and a total water drinking amount thereof as well as a percentage of quinine water in the total water drinking amount were counted respectively. Water drinking amounts of the bitter water of animals in each group were compared. Whether differences between groups were significant was compared by analysis of variance. 2) Experimental Results

[1] = Liver microsomal enzyme stability test; assay type: in vitro ADME; settings: Human liver microsomes 0.5 mg/mL, 1 μM compound, 1 mM NADPH, 37° C.; for half-life at 1 μM: read-out: t1/2 (=0.693/k, min)
Experimental: An LC-MS/MS method, wherein A liquid phase method adopts a gradient elution method. Chromatographic Column: ACQUITY UPLC® BEH C18 (2.1 mm×50 mm, 1.7 μm); Flow Rate: 0.35 mL/min; Injection Volume: 1 μL (YS001), 3 μL (testosterone); Column Temperature: 40° C.; Automatic Sampler Temperature: 4° C.; Mobile Phase Compositions: mobile phase A: 0.1% formic acid water, and mobile phase B: acetonitrile. Mass spectrometry conditions adopt an ESI source, and positive ion and multiple reaction monitoring (MRM) modes were used for mass spectrometry analysis.
Liver microsome incubation samples were taken, in which 400 μL of an acetonitrile solution containing an internal standard (1 ng/mL loratadine) was added for a termination reaction. Even vortex mixing was conducted at 2,500 rpm. Centrifuging was conducted for 10 minutes at 20,000 rcf at 4° C. Supernatants were taken into clean lined tubes. Contents of prototype drugs were detected by LC-MS/MS.
Metabolic rate test: human liver microsomes were taken, unfrozen and thawed on ice, and gently shaken evenly. […] 80 μL of the above solution was pipetted, and pre-incubated for 5 minutes in a 37° C. water bath, then, 20 μL of a 5 mM NADPH solution was added, and incubating was conducted in a 37° C. water bath. […] After reaction for 0, 10, 30, 60, and 90 minutes, the reaction was terminated with 4 times the volume of acetonitrile (containing 1 ng/mL internal standard loratadine). Even vortex mixing was conducted. High-speed centrifuging was conducted for 10 minutes at 20,000 rcf at 4° C. Supernatants were taken for LC-MS/MS detection. Each incubation sample was subjected to a parallel test in triplicate. Positive control was metabolic samples of microsomes of corresponding species to a positive drug testosterone (1 μM). The reaction was terminated with 4 times the volume of acetonitrile (containing 1 ng/mL internal standard loratadine). Incubation time points were 0, 30, 60 minutes.
Analyst 1.6.3 software was used for data collecting. After integration parameters were optimized, target chromatographic peaks were automatically integrated, individual chromatographic peaks were not allowed to be integrated separately or manually, and retention time and a peak area were calculated. Data was collected by Analyst 1.6.3, and subjected to integration processing to obtain the retention time and the peak area, and a peak area ratio of an analyte to an internal standard was calculated. Then, Microsoft Office Excel was used for secondary processing to calculate a half-life period t1/2 and a clearance rate CLint thereof. A residual percentage (% Control) of tested compounds was calculated from a ratio of a concentration of a non-zero time point sample to a concentration of a zero-time sample. Ln (% Control) was plotted against incubation time and subjected to linear fitting. An elimination constant (ke, 1/min), an elimination half-life period (t1/2, min) and an in-vitro intrinsic clearance rate (CLint, μL/(mg·min)) of the tested compounds were calculated. T1/2=0.693/ke, CLint=ke/Cprotein (Note: ke is a slope, and Cprotein is a protein concentration.)

With `CCOC(=O)N(C)[C@H]1CN(C(=O)N[C@H](C)c2cnc(C(F)(F)F)nc2)N=C1c1ccc(C)cc1` [Compound 4, (S)-4-(N-methyl-N-ethoxycarbonylamino)-3-(4-methylphenyl)-N-((R)-1-(2-(trifluoromethyl)pyrimidin-5-yl)ethyl)-4,5-dihydro-1H-pyrazol-1-carboxamide] as the compound, how does the pIC50 (rP2X3) read?
The pIC50 was 6.78.

What about the pIC50 (gpP2X3) of the same compound?
Its pIC50 is 6.38.

And the “Water drinking amount, Tap water” value (taste of SD rats)?
Its value is 11.84.

And the “Water drinking amount, Sum” value (taste of SD rats)?
Its value is 13.87.

And the “Water drinking amount, Quinine” value (taste of SD rats)?
Its value is 2.03.

And the “Clint, microsome (=k/Cprotein, μL × min^−1 × mg^−1 proteins)” value [1]?
The value was 3.8 μL × min^−1 × mg^−1 proteins.

And the “ke (=−slope, min^−1)” value [1]?
The value was 0.0019 min⁻¹.

What about the half-life at 1 μM [1] of the same compound?
The half-life at 1 μM was 364 min.

What does the source list for `Cc1ccc(C2=NN(C(=O)N[C@H](C)c3ccc(C(F)(F)F)nc3)C[C@@H]2N2CCOC2=O)cc1` [Compound 22]?
pIC50 (rP2X3): 7.05; pIC50 (gpP2X3): 6.53; Water drinking amount, Tap water (taste of SD rats): 12.26; Water drinking amount, Sum (taste of SD rats): 14.13; Water drinking amount, Quinine (taste of SD rats): 1.87; Clint, microsome (=k/Cprotein, μL × min^−1 × mg^−1 proteins) [1]: 21.4 μL × min^−1 × mg^−1 proteins; ke (=−slope, min^−1) [1]: 0.0107 min⁻¹; half-life at 1 μM [1]: 64.8 min
